Each structure is given as a SMILES string. Calls of active or inactive are those of the source. No rule for the calls is given here.

The results in this text go back to PubChem BioAssay AID1259407 (Chemical Carcinogenesis Research Information System (CCRIS), 2018).

This series relates to CCRIS mutagenicity, Ames/micronucleus/aberration tests. Description: CCRIS mutagenicity studies.
Where [1] appears, read: Test System: AMES SALMONELLA TYPHIMURIUM, Strain/Indicator: TA100, Metabolic Activation: NONE, Method: STANDARD PLATE.
Where [2] appears, read: Test System: AMES SALMONELLA TYPHIMURIUM, Strain/Indicator: TA100, Metabolic Activation: RAT, LIVER, S-9, AROCLOR 1254, Method: STANDARD PLATE.

For `c1ccc2nccnc2c1`, the mutagenic call by setting is: (Test System: AMES SALMONELLA TYPHIMURIUM, Strain/Indicator: TA98, Metabolic Activation: HAMSTER, LIVER, S-9, AROCLOR 1254, Method: STANDARD PLATE) “inactive; negative”; (Test System: AMES SALMONELLA TYPHIMURIUM, Strain/Indicator: TA98, Metabolic Activation: NONE, Method: PREINCUBATION) “inactive; negative”; (Test System: AMES SALMONELLA TYPHIMURIUM, Strain/Indicator: TA98, Metabolic Activation: NONE, Method: STANDARD PLATE) “inactive; negative”; (Test System: AMES SALMONELLA TYPHIMURIUM, Strain/Indicator: TA98, Metabolic Activation: RAT, LIVER, S-9, AROCLOR 1254, Method: PREINCUBATION) “active; positive”; (Test System: AMES SALMONELLA TYPHIMURIUM, Strain/Indicator: TA98, Metabolic Activation: RAT, LIVER, S-9, AROCLOR 1254, Method: STANDARD PLATE) “inactive; negative”; (Test System: AMES SALMONELLA TYPHIMURIUM, Strain/Indicator: TA100, Metabolic Activation: HAMSTER, LIVER, S-9, AROCLOR 1254, Method: STANDARD PLATE) “inactive; negative”. For the same compound, the mutagenic call (Test System: AMES SALMONELLA TYPHIMURIUM, Strain/Indicator: TA100, Metabolic Activation: NONE, Method: PREINCUBATION) is “inactive; negative”; the mutagenic call under setting [1] is “inactive; negative”; the mutagenic call (Test System: AMES SALMONELLA TYPHIMURIUM, Strain/Indicator: TA100, Metabolic Activation: RAT, LIVER, S-9, AROCLOR 1254, Method: PREINCUBATION) is “inactive; negative”; the mutagenic call under setting [2] is “inactive; negative”; the mutagenic call (Test System: AMES SALMONELLA TYPHIMURIUM, Strain/Indicator: TA102, Metabolic Activation: NONE, Method: PREINCUBATION) was “inactive; negative”; the mutagenic call (Test System: AMES SALMONELLA TYPHIMURIUM, Strain/Indicator: TA102, Metabolic Activation: RAT, LIVER, S-9, AROCLOR 1254, Method: PREINCUBATION) was “inactive; negative”. Moreover, the mutagenic call (Test System: AMES SALMONELLA TYPHIMURIUM, Strain/Indicator: TA1535, Metabolic Activation: HAMSTER, LIVER, S-9, AROCLOR 1254, Method: STANDARD PLATE) is “inactive; negative”; the mutagenic call (Test System: AMES SALMONELLA TYPHIMURIUM, Strain/Indicator: TA1535, Metabolic Activation: NONE, Method: STANDARD PLATE) is “inactive; negative”; the mutagenic call (Test System: AMES SALMONELLA TYPHIMURIUM, Strain/Indicator: TA1535, Metabolic Activation: RAT, LIVER, S-9, AROCLOR 1254, Method: STANDARD PLATE) was “inactive; negative”; the mutagenic call (Test System: AMES SALMONELLA TYPHIMURIUM, Strain/Indicator: TA1537, Metabolic Activation: HAMSTER, LIVER, S-9, AROCLOR 1254, Method: STANDARD PLATE) is “inactive; negative”; the mutagenic call (Test System: AMES SALMONELLA TYPHIMURIUM, Strain/Indicator: TA1537, Metabolic Activation: NONE, Method: STANDARD PLATE) was “inactive; negative”; the mutagenic call (Test System: AMES SALMONELLA TYPHIMURIUM, Strain/Indicator: TA1537, Metabolic Activation: RAT, LIVER, S-9, AROCLOR 1254, Method: STANDARD PLATE) is “inactive; negative”. Besides, the mutagenic call is, setting by setting: (Test System: AMES SALMONELLA TYPHIMURIUM, Strain/Indicator: TA1538, Metabolic Activation: HAMSTER, LIVER, S-9, AROCLOR 1254, Method: STANDARD PLATE) “inactive; negative”; (Test System: AMES SALMONELLA TYPHIMURIUM, Strain/Indicator: TA1538, Metabolic Activation: NONE, Method: STANDARD PLATE) “inactive; negative”; (Test System: AMES SALMONELLA TYPHIMURIUM, Strain/Indicator: TA1538, Metabolic Activation: RAT, LIVER, S-9, AROCLOR 1254, Method: STANDARD PLATE) “inactive; negative”; (Test System: Mouse lymphoma, Strain/Indicator: L5178Y (tk+/tk-), Metabolic Activation: None, Method: Suspension/plate) “inactive; negative”; (Test System: Mouse lymphoma, Strain/Indicator: L5178Y (tk+/tk-), Metabolic Activation: Rat, Liver, S-9, Aroclor 1254, Method: Suspension/plate) “active; positive”.
In the case of `C=C(C#N)C(=O)OCC`, the mutagenic call under setting [1] is “inactive; negative” and the mutagenic call under setting [2] is “inactive; negative”.
`ClC(Cl)(Cl)c1nc(-c2ccc3c(c2)OCO3)nc(C(Cl)(Cl)Cl)n1`: the mutagenic call is “active; positive (structural changes and ploidy). ploidy response weak and not dose rela” (End Point: In vitro chromosomal aberrations, Test System: Chinese hamster lung (CHL/IU) cells, Metabolic Activation: Rat, Liver, S-9, Phenobarbital and 5,6-benzoflavone); “inactive; negative” (Test System: Ames Salmonella typhimurium, Strain/Indicator: TA98, Metabolic Activation: None, Method: Preincubation); “inactive; negative” (Test System: Ames Salmonella typhimurium, Strain/Indicator: TA98, Metabolic Activation: Rat, Liver, S-9, Phenobarbital and 5,6-benzoflavone, Method: Preincubation); “active; positive” (Test System: Ames Salmonella typhimurium, Strain/Indicator: TA100, Metabolic Activation: None, Method: Preincubation); “active; positive” (Test System: Ames Salmonella typhimurium, Strain/Indicator: TA100, Metabolic Activation: Rat, Liver, S-9, Phenobarbital and 5,6-benzoflavone, Method: Preincubation); “inactive; negative” (Test System: Ames Salmonella typhimurium, Strain/Indicator: TA1535, Metabolic Activation: None, Method: Preincubation). The mutagenic call is “active; positive” (Test System: Ames Salmonella typhimurium, Strain/Indicator: TA1535, Metabolic Activation: Rat, Liver, S-9, Phenobarbital and 5,6-benzoflavone, Method: Preincubation); “inactive; negative” (Test System: Ames Salmonella typhimurium, Strain/Indicator: TA1537, Metabolic Activation: None, Method: Preincubation); “inactive; negative” (Test System: Ames Salmonella typhimurium, Strain/Indicator: TA1537, Metabolic Activation: Rat, Liver, S-9, Phenobarbital and 5,6-benzoflavone, Method: Preincubation); “inactive; negative” (Test System: E. coli, Strain/Indicator: WP2uvrA/pKM101, Metabolic Activation: None, Method: Preincubation); “inactive; negative” (Test System: E. coli, Strain/Indicator: WP2uvrA/pKM101, Metabolic Activation: Rat, Liver, S-9, Phenobarbital and 5,6-benzoflavone, Method: Preincubation).
With `C/C=C1/C[C@@H](C)[C@](C)(OC(C)=O)C(=O)OC/C2=C/CN(C)CC[C@@H](OC1=O)C2=O`, the mutagenic call (Test System: UDS RAT HEPATOCYTES, Strain/Indicator: THY INCORP, Metabolic Activation: NONE, Method: AUTORADIOGRAPHY) is “active; positive”.
